Assay results published in patent publication US20230025891A1, “COMPOSITION OF NATURAL EXTRACTS HAVING ANTIBACTERIAL OR BACTERIOSTATIC ACTIVITY ALSO FOR GRAM-NEGATIVE BACTERIA” (priority 2019, published 2023).

Assays:
Solubility = assay type: physicochemical; conditions: qualitative
Protocol: Racemic usnic acid (CAS No. 125-46-2) is the bioactive secondary metabolite of lichens. The large-scale use of said usnic acid has always been limited due to the low solubility in water (0.06 mg/cm^3, at room temperature of 20° C. and 1 atmosphere pressure).
As mentioned above, in such compound (ci) the lipophilic cavity of the cyclodextrins (host) hosts D-usnic acid, or salt thereof, or mixtures thereof (i) (guest), through a reversible non-covalent interaction. As a matter of fact, during the formation of the inclusion compound (ci), no covalent bond is formed, and no covalent bond is broken. The mechanism which—at least primarily—promotes the formation of the inclusion compound is the release of solvent molecules (preferably water molecules), a highly enthalpic exchange reaction, from the cyclodextrin cavity (ii). […] Furthermore, the inclusion compound (ci) renders D-usnic acid (or a salt thereof) compatible in an aqueous solution or an aqueous dispersion or an aqueous suspension. When said aqueous solution or dispersion or suspension, containing said inclusion compound (ci), is applied manually—by spraying or mechanically—to a surface such as that of a wall or floor of a hospital or kindergarten or school room, said acid or a salt thereof contained in said inclusion compound (ci) is capable of being placed, adhering and coating said surface uniformly and homogeneously as if it were a coating paint.
Said D-usnic acid as enantiomer (i), preferably as pure enantiomer, is of natural origin and could be associated, as chemical structure, with that of the corresponding synthesis compound having CAS No. 7562-61-0, i.e. the dextrorotatory enantiomer of said acid. The D-usnic acid as the pure enantiomer of the present invention is soluble in chloroform and ethyl acetate. […] Said D-usnic acid as a pure enantiomer has a melting point comprised from 192° C. to 204° C., a flash point of 223° C. and a boiling point of 605° C. Preferably, said D-usnic acid salt as pure enantiomer is a sodium salt. Said inclusion compound (ci) preferably comprises solid particles of D-usnic acid as pure enantiomer, or salt thereof, or mixtures thereof (i). More preferably, said solid particles have an average particle distribution comprised from 0.01 μm to 50 μm, preferably comprised from 0.1 μm to 30 μm, more preferably comprised from 0.15 μm to 20 μm, even more preferably comprised from 0.2 μm to 15 μm. Said average particle distribution was determined and measured using a laser diffraction method, according to the GB/T 19077-2016 standard, for example with a Malvern Mastersizer 3000 instrument. Said standard is meant in the version valid at the priority date of the present patent application. […]

[1] = Observed anti-bacterial efficacy depending on origin and isomer of usnic acid; conditions: natural versus synthetic dextrorotatory form
Excerpt: Therefore, the solubility of usnic acid in water has always represented, and still represents, a great limit to its use. Furthermore, as regards the efficacy of usnic acid (or of a relative salt thereof) in terms of anti-bacterial activity, the inventors of the present invention observed that it depends both on the (natural or synthetic) origin of usnic acid and on the type of isomer (levorotatory(−) and/or dextrorotatory(+)) used.

SMILES: CC(=O)c1c(O)c(C)c(O)c2c1OC1=CC(=O)C(C(C)=O)C(=O)C12C (single isomer, unassigned; (+)) [D-usnic acid, (+)-Usnic acid 2,6-Diacetyl-7,9-dihydroxy-8,9-dimethyldibenzo[b,d]furan-1,3(2H,9bH)-dione]
- solubility in chloroform (Solubility): soluble
- solubility in ethanol (Solubility): moderately soluble
- solubility in ethyl acetate (Solubility): soluble
- solubility in water (Solubility): insoluble
- stability, efficacy and activity compared with synthetic origin [1]: more stable, effective and active than the dextrorotatory form (+) of synthetic origin
